The structures appear in SMILES notation.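 Test compounds were applied to cells in 96-well plates for 48 hours at 5 doses. GI50 = concentration required for 50% inhibition of growth. TGI is the concentration that stops growth completely.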 Some results are limits rather than exact numbers.

What all share (assay): NCI tumour cell line growth inhibition, 48 h
For assay [1], the system named is ACHN renal.
In assay [2] the test system is SN12C renal.
The subject of assay [3] is RXF 393 renal.
For assay [4], the system named is MOLT-4 leukemia.
Assay [5] relates to PC-3 prostate.
Assay [6] has as its system SK-MEL-2 melanoma.
Assay [7] deals with OVCAR-3 ovarian.
Assay [8] has as its system HL-60(TB) leukemia.
The subject of assay [9] is MDA-MB-231 breast.
In assay [10] the test system is BT-549 breast.

As to `O=C1C(Cl)=C(Nc2ccccc2O)C(=O)N1Cc1ccccc1`, the GI50 in [1] is 20.6 µM; in assay [2], 16.4 µM; in assay [3], 12.5 µM; in assay [4], 19.6 µM; in assay [5], 18.1 µM; in [6], 30.9 µM. In addition, the GI50 in assay [7] was 18 µM. The TGI in [1] is 55.8 µM; in assay [2] it was 29.9 µM; in [3] it was 30.7 µM; in [4], above 100 µM; in [5] it was 39.1 µM; in [6], 96 µM. In assay [7], this compound registered a TGI of 31.9 µM.

Regarding `COc1cc(C(=O)C/C(CCC(=O)Nc2ccc(Cl)cc2Cl)=N/NC(=O)C(=O)NN)ccc1O`, the TGI in [8], in [1], in assay [2], in assay [3] and in [7] was above 100 µM throughout.

As for `OCCNCCOc1ccc(/C(=C(/Cl)c2ccccc2)c2ccccc2)cc1`, the TGI in [8] was 4.52 µM; in [2] it was 19.7 µM; in assay [3], 14.7 µM; in assay [4], 17.2 µM; in assay [6], 26.4 µM; in assay [7], 24.8 µM.

Regarding `O=C1C(=O)N(c2cc(Cl)ccc2Cl)C(=O)C(=O)C1c1nc2ccccc2o1`, the TGI in assay [8], in [1], in [2], in assay [3], in assay [4] and in assay [6] was above 100 µM throughout. This compound also returned a TGI in assay [7] above 100 µM.

For `CCOC(=O)/C(=C/c1cccc(C#N)c1)N(CC)CC`, the TGI in assay [8], in [1], in [2], in assay [4] and in assay [6] was above 100 µM in each case.

For `Oc1ccc(Br)cc1C=Nc1ccc(N=Cc2cc(Br)ccc2O)cc1`, the TGI in assay [8], in assay [1], in assay [2], in assay [3], in assay [4] and in [6] was above 100 µM each time.

Take `CC(O)CC(O)(C(F)(F)F)C(F)(F)F` (configuration not stated): the TGI in assay [8], in assay [1], in assay [2], in assay [3], in assay [4] and in assay [5] was above 10 µM throughout. In addition, the TGI in [6], in assay [7] and in assay [9] was above 10 µM in each case.

As to `N#CC(C(=O)CCC(=O)Nc1cccc(C(F)(F)F)c1)c1ccc(Cl)cc1` (configuration not stated), the TGI in assay [8], in [1], in assay [2], in assay [4] and in assay [7] was above 100 µM each time.

`Nc1ccc2nc3n(c2c1)C(=O)c1ccccc1-3`: the TGI in [8], in assay [1], in assay [2], in [3], in assay [4] and in assay [5] was above 100 µM in each case. Besides, the TGI in assay [6], in assay [7] and in assay [10] was above 100 µM in each case.

For `CC(=O)OC1C2CCC1C1C2C2(Cl)C(Cl)=C(Cl)C1(Cl)C2(Cl)Cl` (configuration not stated), the TGI in assay [1] is 25.9 µM; in assay [2], 28.4 µM; in [3], 29.3 µM; in [4], 26.4 µM; in [6], 22.2 µM; in assay [7], 24 µM.

With `CC1=CC(=O)C(C(O)(C(F)(F)F)C(F)(F)F)C(C)(C)C1` (configuration not stated), the TGI in [8], in assay [1], in assay [2], in [3], in assay [4] and in assay [5] was above 10 µM each time. Also, the TGI in assay [6], in assay [7] and in assay [9] was above 10 µM in each case.

Take `CCOC(CN(C)C(=S)Nc1cccc2ccccc12)OCC`: the TGI in assay [8], in assay [1], in assay [2], in [3], in [4] and in assay [5] was above 10 µM in each case. For the same compound, the TGI in assay [6], in assay [7] and in [9] was above 10 µM throughout.

As for `O=S1(=O)OCCOS(=O)(=O)C1Cl`, the TGI in assay [8], in [2], in [4], in assay [6] and in assay [7] was above 100 µM in each case.

`O=C(O)CN(c1ccccc1)S(=O)(=O)c1ccc([N+](=O)[O-])cc1`: the TGI in assay [8], in assay [1], in assay [2], in assay [3], in [4] and in [6] was above 100 µM throughout. The compound further gave a TGI in [7] above 100 µM.

In the case of `O=c1c2ccccc2nc(-c2ccccc2)n1NC(=S)Nc1ccccc1`, the TGI in [8], in [1], in assay [2], in [3], in assay [4] and in assay [6] was above 100 µM throughout.

For `CC1CN1c1c(C(=O)/C=C/c2ccc(Cl)cc2)c(-c2ccccc2)nn(C)c1=O` (configuration not stated), the TGI in assay [8] turned out to be 5.22 µM; in assay [1], 5.27 µM; in assay [2], 8.45 µM; in [3] it was 8.4 µM; in assay [4], 8.02 µM; in assay [6], 5.8 µM. The compound further showed a TGI in assay [7] of 6.79 µM.

Turning to `COC(=O)c1cccc2cccc(C(=O)Nc3ccc(Cl)cc3)c12`, the TGI in assay [8] is 22.1 µM; in [1], above 100 µM; in assay [2], above 100 µM; in assay [3], above 100 µM; in [4], above 100 µM; in assay [6] it was above 100 µM. The compound further had a TGI in assay [7] above 100 µM.

For `CN(C)CCSc1nccc(-c2cc3ccccc3s2)n1`, the TGI is above 100 µM in assay [2]; 56 µM in [3]; 66.1 µM in [4]; 33.5 µM in assay [6]; above 100 µM in assay [7].

The record behind these values is PubChem BioAssay (NCI).
